System: streptavidin
Experiment: Affinity chromatography: elution of labeled streptavidin from biotinylated glass beads
Format: binding
Settings: washing with solutions of increasing concentrations; absorbance of eluate (FIG. 5)
Experimental: The biotinylated glass beads were added to 1 ml PBS, to which 50 μg of streptavidin labeled with Cy5 fluorescent dye was added (total dye: 0.3 OD640/ml). The resulting solution was stirred, then OD640 was measured again, the detected value was 0.003. […] Two chromatographic analyses were performed to verify the specific binding. During the first, 100 mg of the biotinylated glass beads was washed with biotin solutions with increasing concentrations, and in the second, the column containing biotinylated glass beads was washed with benzamidine solutions of increasing concentrations. The absorbance of the eluate was measured continuously (FIG. 5).

O=C(O)CCCC[C@@H]1SC[C@@H]2NC(=O)N[C@@H]21 [biotin]
Elution of fluorescent labeled streptavidin from biotinylated glass beads: could be eluted only with the biotin solution

Source: patent US20100022415A1, “ACTIVE CARRIER, ITS PRODUCTION AND ITS USE” (AVICOR KET., priority 2006, published 2010)
